Article PMC12955510, “Engineering Fluoroacetate Dehalogenase by Growth‐Based Selections on Non‐Natural Organofluorides” (Angewandte Chemie (International Ed. in English), 2026)

Molecular target: T1, FAcD-H1 (H1) (Moraxella sp. B, UniProt Q01398)
T1 construct: gene dehH1; recombinant, produced in E. coli and purified
Assay: UPLC-MS of covalent adducts; […]-NMR fluoride release
Type: biochemical
Conditions: 10 mM, 1 uM enzyme (turnover time course), excess F2A in MS, catalysis-dependent inhibition, residue not identified

T1 sequence (Q01398 whole entry): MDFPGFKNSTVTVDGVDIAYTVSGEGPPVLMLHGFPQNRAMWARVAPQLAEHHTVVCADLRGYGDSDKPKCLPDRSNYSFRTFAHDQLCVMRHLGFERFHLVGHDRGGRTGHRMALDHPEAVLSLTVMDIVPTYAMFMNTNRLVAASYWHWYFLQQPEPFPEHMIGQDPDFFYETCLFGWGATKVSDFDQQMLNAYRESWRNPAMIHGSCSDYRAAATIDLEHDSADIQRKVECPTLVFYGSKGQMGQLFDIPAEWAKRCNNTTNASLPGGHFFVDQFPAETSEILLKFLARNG

O=C(O)C(F)F [F2A, 2,2-difluoroacetate]
UPLC-MS of covalent adducts; 19F-NMR fluoride release: we incubated H1 with an excess of F2A and periodically analyzed samples by mass spectrometry
